Usually IC50 stands for the concentration at which inhibition is half-maximal.

Sequence of human TRPA1 (O75762 whole entry, the tested form may be a part): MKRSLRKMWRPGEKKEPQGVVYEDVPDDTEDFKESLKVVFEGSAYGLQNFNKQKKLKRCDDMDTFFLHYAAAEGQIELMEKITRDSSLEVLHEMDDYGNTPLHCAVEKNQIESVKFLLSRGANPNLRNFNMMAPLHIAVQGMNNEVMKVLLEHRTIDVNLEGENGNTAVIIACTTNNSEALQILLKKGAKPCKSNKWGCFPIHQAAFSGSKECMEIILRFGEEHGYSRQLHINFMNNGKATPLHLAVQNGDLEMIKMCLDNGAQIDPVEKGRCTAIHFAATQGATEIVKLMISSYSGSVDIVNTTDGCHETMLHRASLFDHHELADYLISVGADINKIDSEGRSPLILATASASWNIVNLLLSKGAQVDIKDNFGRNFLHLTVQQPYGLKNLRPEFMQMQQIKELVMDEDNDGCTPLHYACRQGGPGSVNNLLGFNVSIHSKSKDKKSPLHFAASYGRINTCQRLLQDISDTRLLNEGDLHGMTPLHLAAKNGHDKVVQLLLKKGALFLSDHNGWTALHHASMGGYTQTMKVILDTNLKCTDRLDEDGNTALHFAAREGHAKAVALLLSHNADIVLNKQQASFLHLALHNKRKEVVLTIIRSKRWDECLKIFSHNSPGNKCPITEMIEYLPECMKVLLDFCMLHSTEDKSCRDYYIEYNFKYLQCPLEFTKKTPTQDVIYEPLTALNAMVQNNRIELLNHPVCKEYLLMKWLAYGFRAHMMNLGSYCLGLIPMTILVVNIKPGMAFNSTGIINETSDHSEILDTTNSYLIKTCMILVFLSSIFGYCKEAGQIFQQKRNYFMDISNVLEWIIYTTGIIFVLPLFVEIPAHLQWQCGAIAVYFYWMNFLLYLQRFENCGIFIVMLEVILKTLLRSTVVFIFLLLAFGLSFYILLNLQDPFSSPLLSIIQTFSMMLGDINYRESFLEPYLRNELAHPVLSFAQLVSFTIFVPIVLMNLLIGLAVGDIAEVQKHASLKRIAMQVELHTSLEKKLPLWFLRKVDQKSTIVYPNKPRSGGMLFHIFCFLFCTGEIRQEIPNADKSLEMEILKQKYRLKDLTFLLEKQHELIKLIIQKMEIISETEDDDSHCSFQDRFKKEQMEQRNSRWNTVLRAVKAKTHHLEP

This experiment concerns the target human TRPA1 (Homo sapiens (Human), UniProt O75762). The experiment can be described thus: In vitro inhibition of human TRPA1, whole cell patch configuration. The class given is cell-based. Conditions: current activation 10 μM AITC, tested concentrations 320 pM to 3.2 μM, read-out: hTRPA1 IC50. In short, it runs like this:
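Compound antagonism measured from voltage ramps (±100 or ±80 mV, 400 ms, every 4 s from −40 mV), analysed at −80 and 80 mV, or at constant −60 mV. HEPES-buffered NaCl bath, pH 7.4, EGTA or 2 mM Ca2+; temperature set by perfusion, within ±2° C; no junction-potential correction.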
For `COCC(=O)Cn1c(=O)c2c(ncn2[C@@H](C)C(=O)Nc2cccc(-c3cnc(N4CC5C(C4)C5(F)F)nc3)n2)n(C)c1=O` (stereo partly drawn) [Compound 146, (2S)—N-(6-(2-(6,6-difluoro-3-azabicyclo[3.1.0]hexan-3-yl)pyrimidin-5-yl)pyridin-2-yl)-2-(1-(3-methoxy-2-oxopropyl)-3-methyl-2,6-dioxo-2,3-dihydro-1H-purin-7(6H)-yl)propanamide], the IC50 came to 3 nM.

Regarding `CCC(=O)Cn1c(=O)c2c(ncn2[C@@H](C)C(=O)Nc2cccc(-c3cnc(N4CC5CC5C4)nc3)n2)n(C)c1=O` (stereo partly drawn) [Compound 147, (2S)—N-(6-(2-(3-azabicyclo[3.1.0]hexan-3-yl)pyrimidin-5-yl)pyridin-2-yl)-2-(3-methyl-2,6-dioxo-1-(2-oxobutyl)-2,3-dihydro-1H-purin-7(6H)-yl)propanamide], the IC50 stood at 6 nM.

For `Cc1noc(Cn2c(=O)c3c(ncn3[C@@H](C)C(=O)Nc3ccnc(-c4cnc(C(F)(F)F)c(C)c4)n3)n(C)c2=O)n1` [Compound 150, (S)-2-(3-methyl-1-((3-methyl-1,2,4-oxadiazol-5-yl)methyl)-2,6-dioxo-2,3-dihydro-1H-purin-7(6H)-yl)-N-(2-(5-methyl-6-(trifluoromethyl)pyridin-3-yl)pyrimidin-4-yl)propanamide], the IC50 was 4 nM.

As to `Cc1nc(Cn2c(=O)c3c(ncn3[C@@H](C)C(=O)Nc3cccc(-c4cnc(C)c(C(F)(F)F)c4)n3)n(C)c2=O)no1` [Compound 151, (S)-2-(3-methyl-1-((5-methyl-1,2,4-oxadiazol-3-yl)methyl)-2,6-dioxo-2,3-dihydro-1H-purin-7(6H)-yl)-N-(6′-methyl-5′-(trifluoromethyl)-2,3′-bipyridin-6-yl)propanamide], the IC50 came to 16 nM.

With `CC(=O)Cn1c(=O)c2c(ncn2[C@@H](C)C(=O)Nc2cncc(-c3cnc(N4CC5CC5C4)nc3)n2)n(C)c1=O` (stereo partly drawn) [Compound 152, (2S)—N-(6-(2-(3-azabicyclo[3.1.0]hexan-3-yl)pyrimidin-5-yl)pyrazin-2-yl)-2-(3-methyl-2,6-dioxo-1-(2-oxopropyl)-2,3-dihydro-1H-purin-7(6H)-yl)propanamide], the IC50 came out at 7 nM.

On to `CC(=O)Cn1c(=O)c2c(ncn2[C@@H](C)C(=O)Nc2ncsc2-c2cnc(C(F)(F)F)nc2)n(C)c1=O` [Compound 154, (S)-2-(3-methyl-2,6-dioxo-1-(2-oxopropyl)-2,3-dihydro-1H-purin-7(6H)-yl)-N-(5-(2-(trifluoromethyl)pyrimidin-5-yl)thiazol-4-yl)propanamide], for which the concentration for half-maximal inhibition (IC50) is above 3200 nM.

As to `Cc1cc(Cn2c(=O)c3c(ncn3[C@@H](C)C(=O)Nc3cccc(-c4cncc(C(F)(F)F)c4)n3)n(C)c2=O)no1` [Compound 156, (S)-2-(3-methyl-1-((5-methylisoxazol-3-yl)methyl)-2,6-dioxo-2,3-dihydro-1H-purin-7(6H)-yl)-N-(5′-(trifluoromethyl)-2,3′-bipyridin-6-yl)propanamide], the IC50 was 3 nM.

As for `CC#CCn1c(=O)c2c(ncn2[C@@H](C)C(=O)Nc2csc(-c3cnc(N4CCC[C@@H]4C(F)(F)F)nc3)n2)n(C)c1=O` [Compound 157, (S)-2-(1-(but-2-ynyl)-3-methyl-2,6-dioxo-2,3-dihydro-1H-purin-7(6H)-yl)-N-(2-(2-((R)-2-(trifluoromethyl)pyrrolidin-1-yl)pyrimidin-5-yl)thiazol-4-yl)propanamide], the IC50 was determined as 1 nM.

For the compound `CCC(=O)Cn1c(=O)c2c(ncn2[C@@H](C)C(=O)Nc2cncc(-c3cnc(N4CC5CC5C4)cn3)n2)n(C)c1=O` (stereo partly drawn) [Compound 158, (2S)—N-(5′-(3-azabicyclo[3.1.0]hexan-3-yl)-[2,2′-bipyrazin]-6-yl)-2-(3-methyl-2,6-dioxo-1-(2-oxobutyl)-2,3-dihydro-1H-purin-7(6H)-yl)propanamide], the IC50 amounted to 6 nM.

Turning to `CCC(=O)Cn1c(=O)c2c(ncn2[C@@H](C)C(=O)Nc2cncc(-c3cnc(N4CC5C(C4)C5(F)F)cn3)n2)n(C)c1=O` (stereo partly drawn) [Compound 159, (2S)—N-(5′-(6,6-difluoro-3-azabicyclo[3.1.0]hexan-3-yl)-[2,2′-bipyrazin]-6-yl)-2-(3-methyl-2,6-dioxo-1-(2-oxobutyl)-2,3-dihydro-1H-purin-7(6H)-yl)propanamide], the IC50 is 6 nM.

As for `Cc1cc(-c2nc(NC(=O)[C@H](C)n3cnc4c3c(=O)n(CC(F)(F)F)c(=O)n4C)cs2)cnc1C(F)(F)F` [Compound 161, (S)-2-(3-methyl-2,6-dioxo-1-(2,2,2-trifluoroethyl)-2,3-dihydro-1H-purin-7(6H)-yl)-N-(2-(5-methyl-6-(trifluoromethyl)pyridin-3-yl)thiazol-4-yl)propanamide], the IC50 was determined as 219 nM.

Regarding `Cc1ncc(-c2nc(NC(=O)[C@H](C)n3cnc4c3c(=O)n(CC(F)(F)F)c(=O)n4C)cs2)cc1C(F)(F)F` [Compound 162, (S)-2-(3-methyl-2,6-dioxo-1-(2,2,2-trifluoroethyl)-2,3-dihydro-1H-purin-7(6H)-yl)-N-(2-(6-methyl-5-(trifluoromethyl)pyridin-3-yl)thiazol-4-yl)propanamide], the IC50 worked out at 22 nM.

For `Cc1nc(Cn2c(=O)c3c(ncn3[C@@H](C)C(=O)Nc3csc(-c4cnc(C)c(C(F)(F)F)c4)n3)n(C)c2=O)no1` [Compound 163, (S)-2-(3-methyl-1-((5-methyl-1,2,4-oxadiazol-3-yl)methyl)-2,6-dioxo-2,3-dihydro-1H-purin-7(6H)-yl)-N-(2-(6-methyl-5-(trifluoromethyl)pyridin-3-yl)thiazol-4-yl)propanamide], the IC50 came to 2 nM.

`CC(=O)Cn1c(=O)c2c(ncn2[C@@H](C)C(=O)Nc2cncc(-c3cnc(N4CC5C(C4)C5(F)F)cn3)n2)n(C)c1=O` (stereo partly drawn) [Compound 164, (2S)—N-(5′-(6,6-difluoro-3-azabicyclo[3.1.0]hexan-3-yl)-[2,2′-bipyrazin]-6-yl)-2-(3-methyl-2,6-dioxo-1-(2-oxopropyl)-2,3-dihydro-1H-purin-7(6H)-yl)propanamide]: the IC50 came to 21 nM.

Regarding `COCC(=O)Cn1c(=O)c2c(ncn2[C@@H](C)C(=O)Nc2cccc(-c3cnc(N4CC5CC5C4)nc3)n2)n(C)c1=O` (stereo partly drawn) [Compound 165, (2S)—N-(6-(2-(3-azabicyclo[3.1.0]hexan-3-yl)pyrimidin-5-yl)pyridin-2-yl)-2-(1-(3-methoxy-2-oxopropyl)-3-methyl-2,6-dioxo-2,3-dihydro-1H-purin-7(6H)-yl)propanamide], the IC50 came out at 7 nM.

Take `Cc1noc(Cn2c(=O)c3c(ncn3[C@@H](C)C(=O)Nc3csc(-c4cnc(N5CC6CC6C5)nc4)n3)n(C)c2=O)n1` (stereo partly drawn) [Compound 166, (2S)—N-(2-(2-(3-azabicyclo[3.1.0]hexan-3-yl)pyrimidin-5-yl)thiazol-4-yl)-2-(3-methyl-1-((3-methyl-1,2,4-oxadiazol-5-yl)methyl)-2,6-dioxo-2,3-dihydro-1H-purin-7(6H)-yl)propanamide]: the IC50 was 6 nM.

With `Cc1noc(Cn2c(=O)c3c(ncn3[C@@H](C)C(=O)Nc3cccc(-c4cnc(N5CC6CC6C5)nc4)n3)n(C)c2=O)n1` (stereo partly drawn) [Compound 167, (2S)—N-(6-(2-(3-azabicyclo[3.1.0]hexan-3-yl)pyrimidin-5-yl)pyridin-2-yl)-2-(3-methyl-1-((3-methyl-1,2,4-oxadiazol-5-yl)methyl)-2,6-dioxo-2,3-dihydro-1H-purin-7(6H)-yl)propanamide], the IC50 came out at 4 nM.

With `CC#CCn1c(=O)c2c(ncn2[C@@H](C)C(=O)Nc2cccc(-c3cnc(N4CC5CC5C4)nc3)n2)n(C)c1=O` (stereo partly drawn) [Compound 168, (2S)—N-(6-(2-(3-azabicyclo[3.1.0]hexan-3-yl)pyrimidin-5-yl)pyridin-2-yl)-2-(1-(but-2-yn-1-yl)-3-methyl-2,6-dioxo-2,3-dihydro-1H-purin-7(6H)-yl)propanamide], the IC50 turned out to be 12 nM.

Turning to `CC#CCn1c(=O)c2c(ncn2[C@@H](C)C(=O)Nc2cccc(-c3cnc(N4CC5C(C4)C5(F)F)nc3)n2)n(C)c1=O` (stereo partly drawn) [Compound 169, (2S)-2-(1-(but-2-yn-1-yl)-3-methyl-2,6-dioxo-2,3-dihydro-1H-purin-7(6H)-yl)-N-(6-(2-(6,6-difluoro-3-azabicyclo[3.1.0]hexan-3-yl)pyrimidin-5-yl)pyridin-2-yl)propanamide], the IC50 was 10 nM.

As for `Cc1nc(Cn2c(=O)c3c(ncn3[C@@H](C)C(=O)Nc3cncc(-c4cnc(C)c(C(F)(F)F)c4)n3)n(C)c2=O)no1` [Compound 170, (S)-2-(3-methyl-1-((5-methyl-1,2,4-oxadiazol-3-yl)methyl)-2,6-dioxo-2,3-dihydro-1H-purin-7(6H)-yl)-N-(6-(6-methyl-5-(trifluoromethyl)pyridin-3-yl)pyrazin-2-yl)propanamide], the IC50 came to 27 nM.

On to `Cc1nc(Cn2c(=O)c3c(ncn3[C@@H](C)C(=O)Nc3cccc(-c4cnc(C(F)(F)F)nc4)n3)n(C)c2=O)no1` [Compound 171, (S)-2-(3-methyl-1-((5-methyl-1,2,4-oxadiazol-3-yl)methyl)-2,6-dioxo-2,3-dihydro-1H-purin-7(6H)-yl)-N-(6-(2-(trifluoromethyl)pyrimidin-5-yl)pyridin-2-yl)propanamide], for which the IC50 is 23 nM.

As for `CC#CCn1c(=O)c2c(ncn2[C@@H](C)C(=O)Nc2ccnc(-c3cnc(N4CC5CC5C4)nc3)n2)n(C)c1=O` (stereo partly drawn) [Compound 173, (2S)—N-(2′-(3-azabicyclo[3.1.0]hexan-3-yl)-[2,5′-bipyrimidin]-4-yl)-2-(1-(but-2-yn-1-yl)-3-methyl-2,6-dioxo-2,3-dihydro-1H-purin-7(6H)-yl)propanamide], the IC50 was found to be 6 nM.

For `Cc1nc2c(c(=O)n(Cc3ccccn3)c(=O)n2C)n1CC(=O)Nc1cccc(-c2ccc(Cl)cc2)n1` [Compound 174, N-(6-(4-chlorophenyl)pyridin-2-yl)-2-(3,8-dimethyl-2,6-dioxo-1-(pyridin-2-ylmethyl)-2,3-dihydro-1H-purin-7(6H)-yl)acetamide], the IC50 stood at 24 nM.
